We go through two compounds from patent US20240294659A1, “Method and Compositions for Inducing Differentiation of Myeloid Derived Suppressor Cell to Treat Cancer and Infectious Diseases” (OSE Immunotherapeutics, priority 2014, published 2024).

For one test, the system named is rat MDSC. The experiment in a line: Rat MDSC two-day culture with anti-SIRPα antibody, with or without GM-CSF, phenotype by flow cytometry. The settings on record: two days, GM-CSF 10 ng/ml with or without anti-SIRPα 10 μg/ml (FIG. 4). Format: cell-based. From the text:
Human blood MDSC were characterized and sorted by flow cytometry as follow: CD11b^+CD33^+HLA-DR^low/−CD14^+CD15^− for Mo-MDSC and CD11b^+CD33^+HLA-DR^− CD14^− CD15+ for PMN-MDSC. Rat blood and spleen MDSC were characterized and sorted by flow cytometry as CD11b^+MHC ClassII-NKRP1^int (both Mo-MDSC and PMN-MDSC was included in this phenotype). Mouse MDSC were characterize as follow: CD11b^+MHC Class II-Ly6C^high Ly6G^− for Mo-MDSC and CD11b^+MHC Class II-Ly6C^+Ly6G^+ for PMN-MDSC.
MDSC were purified by flow cytometry according to previously described phenotypes. Purity of cells sorted by flow cytometry was higher than 99%. Freshly purified MDSC were then seeded at 50×10^3 cells/well in 96-well flat-bottomed microtiter plates and cultured for two days in RPMI-1640 medium (supplemented with 2 mM L-glutamine, 100 U/ml penicillin, 0.1 mg/ml streptomycin, 10% heat-inactivated fetal calf serum, 1% nonessential amino acids, 5 mM HEPES, 1 mM sodium pyruvate, and 1 μM 2-mercaptoethanol) and with irrelevant control antibody or anti-SIRPα monoclonal antibody (clone SE7C2 (Santa Cruz Biotechnology) and SE5A5 (Biolegend) for human MDSC or clone ED9 (AbD Serotec) for rat MDSC) at 10 μg/ml. In a different setting, recombinant GM-CSF (10 ng/ml) was also added to force the macrophages/dendritic cells differentiation. […]

The subject of test [1] is Hepa1.6 mouse hepatoma cells. The experiment in a line: Hepatocellular carcinoma mice model. In kind it is in vivo. The settings on record: Sorafenib 40 mg/kg daily oral gavage, day 0 to day 28 (FIG. 10). As to the method:
Eight-weeks-old C57B1/6J male mice received 2.5×10^6Hepa1.6 mouse hepatoma cells in 100 μL through the portal vein, as previously described (Gauttier et al., 2014). Four and eight days after tumour inoculation, mice were injected intraperitoneally with 100 μg of rat anti-CD137 mAb (4-1BB mAb), or with 300 μg of anti-mouse SIRPα monoclonal antibody (clone P84 from Merck Millipore) or both antibodies or an irrelevant control antibody (clone 3G8) 3 times/week for 4 weeks (FIG. 17A) or with 200 μg of the anti-PD-LI mAb (clone 10F-9G2 from BioXCell) or received both antibodies (anti-SIRPα+anti-PDL1) for 4 weeks (FIG. 17B). Sorafenib (Nexavar-Bayer) treated mice received daily 100 μl oral gavage of 40 mg/kg from day 0 to day 28 (FIG. 10). The overall survival was analyzed. Some mice were sacrificed at day 14 after tumor inoculation for leukocytes tumor infiltration quantification and characterization by isolation of non-parenchymal cells of the liver by a Percoll gradient and FACS analysis.

For “GM-CSF: recombinant GM-CSF added to force the macrophages/dendritic cells differentiation”, in the test on rat MDSC, the “differentiation of MDSC (MHC Class II, CD103, CD11b, CD80)” value is recorded as “induce the differentiation of MDSC in mature MHC Class II^+ myeloids cells”.

As for `CNC(=O)c1cc(Oc2ccc(NC(=O)Nc3ccc(Cl)c(C(F)(F)F)c3)cc2)ccn1` [Sorafenib], in test [1], the “mice rescued (overall survival)” value was 60%.
